In US20040147505A1, “Novel heteroaryl-diazabicyclo alkanes as cns-modulators” (priority 2001, published 2004):
Where a name gives a salt, the structure may show the parent alone.

Columns and labels:
[1] = target: T1, serotonin transporter (Rattus norvegicus, UniProt P31652); assay: In vitro inhibition of 3H-5-hydroxytryptamine (3H-5-HT, serotonin) uptake in cortical synaptosomes; assay type: biochemical; details: cortical synaptosomes from male Wistar rats; 3H-5-HT 1 nM; 30 min at 37° C.
T1 construct: Cerebral cortices from male Wistar rats (150-200 g) are homogenized; from tissue; host or cells: rat cerebral cortex synaptosomes (P2 pellet)
Description: The activity of the serotonin transporter integral protein can be measured in vitro by synaptosomal uptake of ^3H-5-hydroxytryptamine.
Preparations are performed at 0-4° C. unless otherwise indicated. […] Monoamine oxidase activity will be inhibited in the presence of pargyline. The homogenate is centrifuged at 1000×g for 10 min. The resulting supernatant is then centrifuged at 27,000×g for 50 min and the supernatant is discarded.
Non-specific uptake is determined using citalopram (1 μM, final concentration). After incubation the samples are poured directly onto Whatman GF/C glass fibre filters under suction. The filters are then washed three times with 5 ml of ice-cold 0.9% (w/v) NaCl solution. The amount of radioactivity on the filters is determined by conventional liquid scintillation counting. Specific uptake is calculated as the difference between total uptake and non-specific uptake.

[2] = target: T2, nAChRs comprised of α4 and β2 subunits (Rattus norvegicus, UniProt P09483+P12390); assay: In vitro inhibition of 3H-cytisine binding; details: cerebral cortex homogenate from male Wistar rats; 3H-cytisine 1 nM; 90 min at 2° C.
T2 construct: Cerebral corticies from male Wistar rats (150-250 g) are homogenized; from tissue; host or cells: rat cerebral cortex membrane homogenate
Description: The predominant subtype with high affinity for nicotine is comprised of α4 and β2 subunits. nAChRs of the latter type can selectively be labelled by the nicotine agonist ^3H-cytisine.
Cerebral corticies from male Wistar rats (150-250 g) are homogenized for 20 sec in 15 ml Tris, HCl (50 mM, pH 7.4) containing 120 mM NaCl, 5 mM KCl, 1 mM MgCl2 and 2.5 mM CaCl2 using an Ultra-Turrax homogenizer. The homogenate is centrifuged at 27,000×g for 10 min. The supernatant is discarded and the pellet is resuspended in fresh buffer and centrifuged a second time. The final pellet is resuspended in fresh buffer (35 ml per g of original tissue) and used for binding assays.
Aliquots of 500 μl homogenate are added to 25 μl of test solution and 25 μl of ^3H-cytisine (1 nM, final concentration), mixed and incubated for 90 min at 2° C. Non-specific binding is determined using (−)-nicotine (100 μM, final concentration). After incubation the samples are added 5 ml of ice-cold buffer and poured directly onto Whatman GF/C glass fibre filters under suction and immediately washed with 2×5 ml ice-cold buffer. The amount of radioactivity on the filters is determined by conventional liquid scintillation counting. Specific binding is total binding minus non-specific binding.

T1 sequence (P31652 whole entry): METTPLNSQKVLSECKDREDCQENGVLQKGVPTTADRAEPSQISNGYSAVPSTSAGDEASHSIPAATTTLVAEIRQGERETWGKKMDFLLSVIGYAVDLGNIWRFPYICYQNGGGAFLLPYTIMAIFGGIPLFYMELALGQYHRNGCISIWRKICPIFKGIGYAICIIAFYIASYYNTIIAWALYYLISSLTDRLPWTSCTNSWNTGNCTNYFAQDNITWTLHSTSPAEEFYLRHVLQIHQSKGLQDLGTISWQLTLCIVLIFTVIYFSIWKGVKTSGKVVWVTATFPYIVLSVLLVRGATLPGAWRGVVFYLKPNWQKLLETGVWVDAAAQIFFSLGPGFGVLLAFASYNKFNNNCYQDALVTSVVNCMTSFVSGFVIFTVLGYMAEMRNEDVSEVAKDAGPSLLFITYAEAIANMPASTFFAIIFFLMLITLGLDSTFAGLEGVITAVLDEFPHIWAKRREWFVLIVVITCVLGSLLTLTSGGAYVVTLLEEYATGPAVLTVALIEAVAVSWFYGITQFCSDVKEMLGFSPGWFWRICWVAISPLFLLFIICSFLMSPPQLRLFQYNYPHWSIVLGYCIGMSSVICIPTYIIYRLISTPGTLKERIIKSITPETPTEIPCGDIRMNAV
T2 sequence (P12390 25-500): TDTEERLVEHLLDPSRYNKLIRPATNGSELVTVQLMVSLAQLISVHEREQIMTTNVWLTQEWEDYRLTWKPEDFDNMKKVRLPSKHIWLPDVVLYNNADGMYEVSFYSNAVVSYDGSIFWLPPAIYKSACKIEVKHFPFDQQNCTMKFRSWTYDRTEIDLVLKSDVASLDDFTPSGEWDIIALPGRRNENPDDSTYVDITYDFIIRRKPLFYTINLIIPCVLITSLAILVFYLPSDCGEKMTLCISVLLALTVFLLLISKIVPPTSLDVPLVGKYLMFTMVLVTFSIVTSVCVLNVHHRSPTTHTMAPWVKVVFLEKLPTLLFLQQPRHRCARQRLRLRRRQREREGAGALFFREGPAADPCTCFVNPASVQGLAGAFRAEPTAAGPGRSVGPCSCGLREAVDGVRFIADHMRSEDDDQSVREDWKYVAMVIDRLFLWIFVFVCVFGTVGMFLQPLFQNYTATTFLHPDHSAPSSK
T2 sequence (P09483 31-630): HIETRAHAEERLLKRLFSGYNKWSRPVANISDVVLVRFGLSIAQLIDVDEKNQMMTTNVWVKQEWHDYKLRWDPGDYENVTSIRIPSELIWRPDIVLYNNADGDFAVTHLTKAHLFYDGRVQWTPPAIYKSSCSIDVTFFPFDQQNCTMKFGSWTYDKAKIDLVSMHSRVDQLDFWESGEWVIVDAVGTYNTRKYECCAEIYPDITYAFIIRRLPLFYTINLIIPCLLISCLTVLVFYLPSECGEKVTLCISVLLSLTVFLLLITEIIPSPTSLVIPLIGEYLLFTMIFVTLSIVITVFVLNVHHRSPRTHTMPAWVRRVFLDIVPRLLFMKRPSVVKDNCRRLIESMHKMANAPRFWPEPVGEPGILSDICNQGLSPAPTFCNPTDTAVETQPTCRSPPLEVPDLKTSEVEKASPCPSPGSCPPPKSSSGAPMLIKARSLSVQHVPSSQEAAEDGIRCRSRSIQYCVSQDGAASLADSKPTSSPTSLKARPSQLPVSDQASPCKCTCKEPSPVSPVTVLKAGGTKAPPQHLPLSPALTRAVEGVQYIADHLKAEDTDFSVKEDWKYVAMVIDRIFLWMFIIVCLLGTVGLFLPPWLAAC

**Q.** Which melting point does the source give for Clc1ccc(N2CC3CC(CN(Cc4ccccc4)C3)C2)nn1 (as salt: fumaric acid salt) here?
**A.** 204 to 205 °C

**Q.** With Clc1cncc(N2CC3CC(CN(Cc4ccccc4)C3)C2)n1 (as salt: fumaric acid salt) as the compound, how does the melting point read?
**A.** 183.1 to 183.3 °C

**Q.** With CN1CC2CC(C1)CN(c1ccc(-c3ccccc3)nn1)C2 (as salt: fumaric acid salt) as the compound, how does the melting point read?
**A.** 213.9 to 220.8 °C

**Q.** Which melting point does the source give for C=CCN1CC2CC(C1)CN(c1ccc(-c3ccccc3)nn1)C2 (as salt: fumaric acid salt) here?
**A.** 183.5 to 187.6 °C

**Q.** With c1ccc(CN2CC3CC(C2)CN(c2ccc4ccccc4n2)C3)cc1 (as salt: fumaric acid salt) [Compound C3, 3-Benzyl-7-(2-quinolinyl)-3,7-diazabicyclo-[3.3.1]-nonane] as the compound, how does the melting point read?
**A.** 56.1 to 56.8 °C

**Q.** For O=[N+]([O-])c1ccc2nc(N3CC4CC(CN(Cc5ccccc5)C4)C3)ccc2c1 (as salt: fumaric acid salt) [Compound C6, 3-Benzyl-7-(6-nitro-2-quinolinyl)-3,7-diazabicyclo-[3.3.1]-nonane], which melting point is on record?
**A.** 168 to 172 °C

**Q.** Which melting point does the source give for Clc1ccc(N2CC3CNCC(C3)C2)nn1 (as salt: fumaric acid salt) [Compound F1, 3-H-7-(6-Chloro-3-pyridazinyl)-3,7-diazabicyclo-[3.3.1]-nonane] here?
**A.** 195.5 to 196.5 °C

**Q.** For Clc1cncc(N2CC3CNCC(C3)C2)n1 (as salt: fumaric acid salt) [Compound F2, 3-H-7-(6-Chloro-2-pyrazinyl)-3,7-diazabicyclo-[3.3.1]-nonane], which melting point is on record?
**A.** 180.3 to 181.9 °C

**Q.** For c1ccc(CN2CC3CC(C2)CN(c2ccc4ccccc4n2)C3)cc1 [Compound C3, 3-Benzyl-7-(2-quinolinyl)-3,7-diazabicyclo-[3.3.1]-nonane], which IC50 [1] is on record?
**A.** 22 nM

**Q.** For O=[N+]([O-])c1ccc2nc(N3CC4CC(CN(Cc5ccccc5)C4)C3)ccc2c1 [Compound C6, 3-Benzyl-7-(6-nitro-2-quinolinyl)-3,7-diazabicyclo-[3.3.1]-nonane], which IC50 [1] is on record?
**A.** 5.7 nM

**Q.** For Clc1ccc(N2CC3CNCC(C3)C2)nn1 [Compound F1, 3-H-7-(6-Chloro-3-pyridazinyl)-3,7-diazabicyclo-[3.3.1]-nonane], which IC50 [2] is on record?
**A.** 3 nM

**Q.** Which IC50 [2] does the source give for Clc1cncc(N2CC3CNCC(C3)C2)n1 [Compound F2, 3-H-7-(6-Chloro-2-pyrazinyl)-3,7-diazabicyclo-[3.3.1]-nonane] here?
**A.** 3.4 nM
